The test system of the test is tissue strips obtained from Landrace pig bladders. As to the kind of experiment: Functional potassium channel opening activity in isolated bladder strips (field-stimulated twitch). Particulars: for EC50 / Emax: Sus scrofa; for EC50: amount causing 50% of the agent's maximal response, read-out: ED50 (the source's name); for Emax: maximal efficacy relative to P1075, field stimulation 0.05 Hz. As to the method: Compounds were evaluated for functional potassium channel opening activity using tissue strips obtained from Landrace pig bladders.
Landrace pig bladders were obtained from female Landrace pigs of 930 kg. Landrace pigs were euthanized with an intraperitoneal injection of pentobarbital solution, Somlethal®, J. A. Webster Inc., Sterling Mass. The entire bladder was removed and immediately placed into Krebs Ringer bicarbonate solution (composition, mM: NaCl, 120; NaHCO3, 20; dextrose, 11; KCl, 4.7; CaCl2, 2.5; MgSO4, 1.5; KH2PO4, 1.2; K2EDTA, 0.01, equilibrated with 5% CO2/95% O2pH 7.4 at 37° C.). Propranolol (0.004 mM) was included in all of the assays to block β-adrenoceptors. The trigonal and dome portions were discarded. Strips 3-5 mm wide and 20 mm long were prepared from the remaining tissue cut in a circular fashion. The mucosal layer was removed. One end was fixed to a stationary glass rod and the other to a Grass FT03 transducer at a basal preload of 1.0 gram. Two parallel platinum electrodes were included in the stationary glass rod to provide field stimulation of 0.05 Hz, 0.5 milli-seconds at 20 volts. This low frequency stimulation produced a stable twitch response of 100-500 centigrams. Tissues were allowed to equilibrate for at least 60 minutes and primed with 80 mM KCl. A control concentration response curve (cumulative) was generated for each tissue using the potassium channel opener P1075 as the control agonist. […] After a 60 minute rinsing period, a concentration response curve (cumulative) was generated for the test agonist in the same fashion as that used for the control agonist P1075. The maximal efficacy of each compound (expressed as % relative to P1075) is reported. The amount of agent necessary to cause 50% of the agent's maximal response (ED50) was calculated using “ALLFIT” (DeLean et al., Am. J. Physiol., 235, E97 (1980)), hereby incorporated by reference. Agonist potencies were also expressed as an index relative to P1075. The index was calculated by dividing the ED50 for P1075 by the ED50 for the test agonist in a given tissue. Each tissue was used for only one test agonist, and the indices obtained from each tissue were averaged to provide an average index of potency.

For `O=C(NC(Nc1c(Nc2cccnc2)c(=O)c1=O)C(F)(F)C(F)(F)F)c1cccc(Cl)c1` (stereo not drawn) [Example 26, 3-chloro-N-(1-{[3,4-dioxo-2-(3-pyridinylamino)-1-cyclobuten-1-yl]amino}-2,2,3,3,3-pentafluoropropyl)benzamide], under “Landrace pig bladder strips”, the EC50 came to 420 nM and the Emax is 64%.
For `CC(C)(C)C(NC(=O)c1ccc(Cl)cc1)Nc1c(Nc2cccnc2Cl)c(=O)c1=O` (stereo not drawn) [Example 29, 4-chloro-N-[1-({2-[(2-chloro-3-pyridinyl)amino]-3,4-dioxo-1-cyclobuten-1-yl}amino)-2,2-dimethylpropyl]benzamide], under “Landrace pig bladder strips”, the EC50 was found to be 3000 nM and the Emax was 81%.
For `CC(C)(C)C(NC(=O)CCc1ccccc1)Nc1c(Nc2cccnc2)c(=O)c1=O` (stereo not drawn) [Example 36, N-(1-{[3,4-dioxo-2-(3-pyridinylamino)-1-cyclobuten-1-yl]amino}-2,2-dimethylpropyl)-3-phenylpropanamide], in that order: 970 nM and 99%.
Consider `CC(C)(Cc1ccccc1)C(NC(=O)c1ccc(Cl)cc1)Nc1c(Nc2cccnc2Cl)c(=O)c1=O` (stereo not drawn) [Example 31, 4-chloro-N-[1-({2-[(2-chloro-3-pyridinyl)amino]-3,4-dioxo-1-cyclobuten-1-yl}amino)-2,2-dimethyl-3-phenylpropyl]benzamide], for which the Index (ED50 for P1075 divided by ED50 for the test agonist in a given tissue, averaged) came to 0.039. Besides, under “Landrace pig bladder strips”, the EC50 worked out at 2900 nM and the Emax is 76%.
For the compound `CC(C)(C)C(NC(=O)c1cccc(F)c1)Nc1c(Nc2cccnc2)c(=O)c1=O` (stereo not drawn) [Example 7, N-(1-{[3,4-dioxo-2-(3-pyridinylamino)-1-cyclobuten-1-yl]amino}-2,2-dimethylpropyl)-3-fluorobenzamide], under “Landrace pig bladder strips”, the EC50 is 8400 nM and the Emax was found to be 89%.
As to `CC(C)(C)C(NC(=O)c1cc(F)cc(F)c1)Nc1c(Nc2cccnc2)c(=O)c1=O` (stereo not drawn) [Example 16, N-(-1-{[3,4-dioxo-2-(3-pyridinylamino) 1-cyclobuten-1-yl]amino}-2,2-dimethylpropyl)-3,5-difluorobenzamide], for the setting “Landrace pig bladder strips”, the EC50 is 3800 nM and the Emax amounted to 94%.
For `CCC(CC)C(NC(=O)c1ccc(Cl)cc1)Nc1c(Nc2cccnc2)c(=O)c1=O` (stereo not drawn) [Example 21, 4-chloro-N-(1-{[3,4-dioxo-2-(3-pyridinylamino)-1-cyclobuten-1-yl]amino}-2-ethylbutyl)benzamide], in that order: 4000 nM and 68%.
As for `CCC(C)(C)N=C(NC#N)Nc1cccnc1` [Example P1075, reference compound], the “effect on stimulated twitch / stimulated contractions of the bladder” value (Landrace pig bladder strips, P1075 over 10^−9 to 10^−5 M) was “completely eliminated the stimulated twitch”.
As for `CC(C)(C)C(NC(=O)c1cccc(I)c1)Nc1c(Nc2cccnc2)c(=O)c1=O` (stereo not drawn) [Example 8, N-(1-{[3,4-dioxo-2-(3-pyridinylamino)-1-cyclobuten-1-yl]amino}-2,2-dimethylpropyl)-3-iodobenzamide], under “Landrace pig bladder strips”, the EC50 came out at 2800 nM and the Emax worked out at 84%.
The like results for `CC(C)(C)C(NC(=O)c1cc(Cl)cc(Cl)c1)Nc1c(Nc2cccnc2)c(=O)c1=O` (stereo not drawn) [Example 12, 3,5-dichloro-N-(1-{[3,4-dioxo-2-(3-pyridinylamino)-1-cyclobuten-1-yl]amino}-2,2-dimethylpropyl)benzamide] were, in that order, 2600 nM and 78%.
The like results for `CC(C)(C)C(NC(=O)c1cccc(Cl)c1)Nc1c(Nc2cccnc2)c(=O)c1=O` (stereo not drawn) [Example 5, 3-chloro-N-(1-{[3,4-dioxo-2-(3-pyridinylamino)-1-cyclobuten-1-yl]amino}-2,2-dimethylpropyl)benzamide] were, in that order, 380 nM and 98%.
The like results for `Cc1cccc(C(=O)NC(Nc2c(Nc3cccnc3)c(=O)c2=O)C(C)(C)C)c1` (stereo not drawn) [Example 6, N-(1-{[3,4-dioxo-2-(3-pyridinylamino)-1-cyclobuten-1-yl]amino}-2,2-dimethylpropyl)-3-methylbenzamide] were, in that order, 1000 nM and 100%.
Consider `COc1cc(OC)cc(C(=O)NC(Nc2c(Nc3cccnc3)c(=O)c2=O)C(C)(C)C)c1` (stereo not drawn) [Example 13, N-(1-{[3,4-dioxo-2-(3-pyridinylamino)-1-cyclobuten-1-yl]amino}-2,2-dimethylpropyl)-3,5-dimethoxybenzamide], for which, where the note is “Landrace pig bladder strips”, the EC50 is 370 nM and the Emax was found to be 75%.
For `CC(C)(C)C(NC(=O)c1ccc(I)cc1)Nc1c(Nc2cccnc2)c(=O)c1=O` (stereo not drawn) [Example 3, N-(1-{[3,4-dioxo-2-(3-pyridinylamino)-1-cyclobuten-1-yl]amino}-2,2-dimethylpropyl)-4-iodobenzamide], in that order: 2200 nM and 73%.
Take `Cc1cccc(C(=O)NC(Nc2c(Nc3cccnc3Cl)c(=O)c2=O)C(C)(C)C)c1` (stereo not drawn) [Example 32, N-[1-({2-[(2-chloro-3-pyridinyl)amino]-3,4-dioxo-1-cyclobuten-1-yl}amino)-2,2-dimethylpropyl]-3-methylbenzamide]: for the setting “Landrace pig bladder strips”, the EC50 came out at 1300 nM and the Emax is 99%.

The values are drawn from patent US20020147230A1, “Aminal Diones as potassium channel openers” (priority 2001, published 2002).
